# Assay results taken from PubChem BioAssay (NCI).
#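 Compound exposure: 48 hours, 5 concentrations, 96-well plates. The concentration for 50% growth inhibition is given as GI50. TGI is the concentration that stops growth completely.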
# How the values were obtained:
# Experiment in all cases: DTP human tumour cell line panel, 48 h
# RPMI-8226 leukemia = system: RPMI-8226 leukemia
# BT-549 breast = system: BT-549 breast
# OVCAR-5 ovarian = system: OVCAR-5 ovarian
# SK-MEL-2 melanoma = system: SK-MEL-2 melanoma
# IGROV1 ovarian = system: IGROV1 ovarian
# HCT-15 colon = system: HCT-15 colon
# K-562 leukemia = system: K-562 leukemia
# HOP-62 NSCLC = system: HOP-62 NSCLC
# HL-60(TB) leukemia = system: HL-60(TB) leukemia
# EKVX NSCLC = system: EKVX NSCLC
# CAKI-1 renal = system: CAKI-1 renal
# RXF 393 renal = system: RXF 393 renal
# A549 NSCLC = system: A549 NSCLC
# HT29 colon = system: HT29 colon
# SF-539 CNS = system: SF-539 CNS
# UO-31 renal = system: UO-31 renal
# SNB-75 CNS = system: SNB-75 CNS
# SNB-19 CNS = system: SNB-19 CNS
# MOLT-4 leukemia = system: MOLT-4 leukemia
# COLO 205 colon = system: COLO 205 colon
# SW-620 colon = system: SW-620 colon
# UACC-257 melanoma = system: UACC-257 melanoma
# ACHN renal = system: ACHN renal
# SK-MEL-28 melanoma = system: SK-MEL-28 melanoma
# UACC-62 melanoma = system: UACC-62 melanoma
# U251 CNS = system: U251 CNS
# TK-10 renal = system: TK-10 renal
# HOP-92 NSCLC = system: HOP-92 NSCLC
# SK-OV-3 ovarian = system: SK-OV-3 ovarian
# SN12C renal = system: SN12C renal
# SF-268 CNS = system: SF-268 CNS
# 786-0 renal = system: 786-0 renal
# OVCAR-3 ovarian = system: OVCAR-3 ovarian
# CCRF-CEM leukemia = system: CCRF-CEM leukemia
# NCI-H23 lung = system: NCI-H23 lung
# OVCAR-4 ovarian = system: OVCAR-4 ovarian
# PC-3 prostate = system: PC-3 prostate
# HCT-116 colon = system: HCT-116 colon
# SF-295 CNS = system: SF-295 CNS
# MDA-MB-231 breast = system: MDA-MB-231 breast
# NCI-H522 lung = system: NCI-H522 lung
# T-47D breast = system: T-47D breast
# LOX IMVI melanoma = system: LOX IMVI melanoma
# HS 578T breast = system: HS 578T breast
# MALME-3M melanoma = system: MALME-3M melanoma
# DU-145 prostate = system: DU-145 prostate
# MCF7 breast = system: MCF7 breast
# HCC-2998 colon = system: HCC-2998 colon
# KM12 colon = system: KM12 colon
# M14 melanoma = system: M14 melanoma
# SR leukemia = system: SR leukemia
# NCI/ADR-RES ovarian = system: NCI/ADR-RES ovarian
# MDA-MB-435 = system: MDA-MB-435
# A498 renal = system: A498 renal
# SK-MEL-5 melanoma = system: SK-MEL-5 melanoma
# OVCAR-8 ovarian = system: OVCAR-8 ovarian
# NCI-H226 lung = system: NCI-H226 lung
# NCI-H460 lung = system: NCI-H460 lung
structure (smiles),measurement,setting,value
COc1cc2c(cc1OC)-c1ccc3cc4c(cc3c1N(CCN(C)C)C2)OCO4,GI50,RPMI-8226 leukemia,221 nM
same,TGI,RPMI-8226 leukemia,1360 nM
same,GI50,BT-549 breast,1150 nM
same,TGI,BT-549 breast,11900 nM
same,GI50,OVCAR-5 ovarian,1530 nM
same,TGI,OVCAR-5 ovarian,5230 nM
same,GI50,SK-MEL-2 melanoma,3360 nM
same,TGI,SK-MEL-2 melanoma,16700 nM
same,GI50,IGROV1 ovarian,943 nM
same,TGI,IGROV1 ovarian,3250 nM
same,GI50,HCT-15 colon,4090 nM
same,TGI,HCT-15 colon,17600 nM
same,GI50,K-562 leukemia,262 nM
same,TGI,K-562 leukemia,1570 nM
same,GI50,HOP-62 NSCLC,373 nM
same,TGI,HOP-62 NSCLC,3970 nM
same,GI50,HL-60(TB) leukemia,250 nM
same,TGI,HL-60(TB) leukemia,681 nM
same,GI50,EKVX NSCLC,1330 nM
same,TGI,EKVX NSCLC,13700 nM
same,GI50,CAKI-1 renal,596 nM
same,TGI,CAKI-1 renal,11400 nM
same,GI50,RXF 393 renal,848 nM
same,TGI,RXF 393 renal,2890 nM
same,GI50,A549 NSCLC,694 nM
same,TGI,A549 NSCLC,2130 nM
same,GI50,HT29 colon,265 nM
same,TGI,HT29 colon,1640 nM
same,GI50,SF-539 CNS,352 nM
same,TGI,SF-539 CNS,2530 nM
same,GI50,UO-31 renal,1770 nM
same,TGI,UO-31 renal,5770 nM
same,GI50,SNB-75 CNS,350 nM
same,TGI,SNB-75 CNS,6000 nM
same,GI50,SNB-19 CNS,400 nM
same,TGI,SNB-19 CNS,11900 nM
same,GI50,MOLT-4 leukemia,158 nM
same,TGI,MOLT-4 leukemia,2570 nM
same,GI50,COLO 205 colon,370 nM
same,TGI,COLO 205 colon,1920 nM
same,GI50,SW-620 colon,522 nM
same,TGI,SW-620 colon,2580 nM
same,GI50,UACC-257 melanoma,2430 nM
same,TGI,UACC-257 melanoma,16500 nM
same,GI50,ACHN renal,588 nM
same,TGI,ACHN renal,3100 nM
same,GI50,SK-MEL-28 melanoma,3040 nM
same,TGI,SK-MEL-28 melanoma,17300 nM
same,GI50,UACC-62 melanoma,403 nM
same,TGI,UACC-62 melanoma,5400 nM
same,GI50,U251 CNS,215 nM
same,TGI,U251 CNS,1230 nM
same,GI50,TK-10 renal,2030 nM
same,TGI,TK-10 renal,7390 nM
same,GI50,HOP-92 NSCLC,859 nM
same,TGI,HOP-92 NSCLC,7940 nM
same,GI50,SK-OV-3 ovarian,518 nM
same,TGI,SK-OV-3 ovarian,3200 nM
same,GI50,SN12C renal,350 nM
same,TGI,SN12C renal,4400 nM
same,GI50,SF-268 CNS,214 nM
same,TGI,SF-268 CNS,2410 nM
same,GI50,786-0 renal,442 nM
same,TGI,786-0 renal,1990 nM
same,GI50,OVCAR-3 ovarian,593 nM
same,TGI,OVCAR-3 ovarian,2280 nM
same,GI50,CCRF-CEM leukemia,148 nM
same,TGI,CCRF-CEM leukemia,3730 nM
same,GI50,NCI-H23 lung,393 nM
same,TGI,NCI-H23 lung,2960 nM
same,GI50,OVCAR-4 ovarian,911 nM
same,TGI,OVCAR-4 ovarian,13300 nM
same,GI50,PC-3 prostate,411 nM
same,TGI,PC-3 prostate,6060 nM
same,GI50,HCT-116 colon,411 nM
same,TGI,HCT-116 colon,1830 nM
same,GI50,SF-295 CNS,400 nM
same,TGI,SF-295 CNS,8280 nM
same,GI50,MDA-MB-231 breast,1630 nM
same,TGI,MDA-MB-231 breast,5310 nM
same,GI50,NCI-H522 lung,188 nM
same,TGI,NCI-H522 lung,1560 nM
same,GI50,T-47D breast,210 nM
same,TGI,T-47D breast,3480 nM
same,GI50,LOX IMVI melanoma,271 nM
same,TGI,LOX IMVI melanoma,1320 nM
same,GI50,HS 578T breast,1680 nM
same,TGI,HS 578T breast,13700 nM
same,GI50,MALME-3M melanoma,1150 nM
same,TGI,MALME-3M melanoma,9450 nM
same,GI50,DU-145 prostate,377 nM
same,TGI,DU-145 prostate,8760 nM
same,GI50,MCF7 breast,122 nM
same,TGI,MCF7 breast,5980 nM
same,GI50,HCC-2998 colon,1290 nM
same,TGI,HCC-2998 colon,2870 nM
same,GI50,KM12 colon,970 nM
same,TGI,KM12 colon,2470 nM
same,GI50,M14 melanoma,430 nM
same,TGI,M14 melanoma,4850 nM
same,GI50,SR leukemia,52.4 nM
same,TGI,SR leukemia,2630 nM
same,GI50,NCI/ADR-RES ovarian,10900 nM
same,TGI,NCI/ADR-RES ovarian,45600 nM
same,TGI,MDA-MB-435,17600 nM
same,GI50,A498 renal,723 nM
same,TGI,A498 renal,2530 nM
same,GI50,SK-MEL-5 melanoma,1390 nM
same,TGI,SK-MEL-5 melanoma,3010 nM
same,GI50,OVCAR-8 ovarian,510 nM
same,TGI,OVCAR-8 ovarian,3440 nM
same,GI50,NCI-H226 lung,772 nM
same,TGI,NCI-H226 lung,2520 nM
same,GI50,NCI-H460 lung,256 nM
same,TGI,NCI-H460 lung,1200 nM
